From patent US8143296B2, “Thiazole-based compound and inhibitor of T-type calcium channel containing the same” (Korea Institute of Science and Technology, priority 2006, dated 2012)

What was measured:
[1] = target: T1, α1G T-type calcium channel (Homo sapiens, UniProt O43497); test: T-type calcium channel activity in HEK293 cells by electrophysiological whole cell patch clamp method; format: cell-based; details: HEK293 cells expressing α1G
T1 construct: host or cells: HEK293
Experimental: The selected compounds were used in a second assay for T-type calcium channel inhibiting activity using electrophysiological whole cell patch clamp method, wherein mammal HEK293 cell lines (originated from human kidney carcinoma cells) which specifically expresses α1G of T-type calcium channel was used for the second assay. […] 10% Fetal bovine serum (FBS) and 1% penicillin/streptomycin (v/v) were added to Dulbecco's modified Eagle's medium (DMEM), to be used as a media solution. The cells were cultured in incubator under the wet condition of 95% air/5% CO2 and temperature of 36.5° C. The media solution was refreshed every 3 or 4 days, and the cells were sub-cultured every week. Only the cells which express α1G T-type calcium channel were cultured using G-418 (0.5 mg/ml) solution. The recording to the cells used in the T-type calcium channel activity analysis was conducted at 2-7 days after the cells were culturing on a cover slip coated with poly-L-lysine (0.5 mg/ml) when conducting every sub-culture. For analysis at a single cell level, the T-type calcium channel current was measured by an electrophysiological whole cell patch clamp method using EPC-9 amplifier (HEKA, German). […] Thereafter, the cell membrane potential was fixed to −100 mV, and then the inward current due to the T-type calcium channel activity when […] to −30 mV (50 ms duration) was measured every 10 seconds. […]

[2] = target: T1, α1G T-type calcium channel; test: Assay for % inhibiting activity against T-type calcium channel using FDSS6000; format: cell-based; details: HEK293, 10 μM; HEK293 cells expressing α1G; Table 4 (Chemical Formula 3 series)
Experimental: In the present invention, in order to search an efficient inhibitor against T-type calcium channel, a primary assay for T-type calcium channel inhibiting activity was conducted by a high-efficient assay using FDSS6000, wherein mammal HEK293 cell lines (originated from human kidney carcinoma cells) which specifically expresses α1G of T-type calcium channel was used for primary assay. Through the primary assay, compounds which show meaningful inhibition effects were selected. The selected compounds were used in a second assay for T-type calcium channel inhibiting activity using electrophysiological whole cell patch clamp method, wherein mammal HEK293 cell lines (originated from human kidney carcinoma cells) which specifically expresses α1G of T-type calcium channel was used for the second assay.
At 12-24 hours before being used for this assay, cells of HEK293 cell line (α1G cell line: KCTC 10519BP, Korean Collection for Type Cultures), which stably express α1G T-type calcium channel and Kir2.1, were sub-cultured in a poly-L-lysine treated 96-well plate with the density of 4×10^4 per a well using a 96-well cell dispenser (Titertek). On the of assay, the 96-well plate to which the cells were attached were washed three times with HEPES buffer solution (150 mM of NaCl, 5 mM of KCl, 1 mM of MgCl2, 2 mM of CaCl2, 10 mM of HEPES, 10 mM of glucose; pH 7.4) using a 96-well plate automatic washing device (Bio Tek), then reacted with HEPES buffer solution containing 5 μM fluo-3/AM and 0.001% Pluronic F-127 under room temperature for 1 hour, to label with fluorescent dye, and then further washed two times with HEPES buffer solution.
Thereafter, at 10 minutes before the measurement using device FDSS6000, a washing with HEPES buffer solution containing 10 mM CaCl2 was conducted once more, and the final volume was adjusted to 81 μl. Besides the above 96-well plate containing the cells, additional two drug 96-well plates were provided, wherein the 96-well plates contain inhibiting drug and KCl (final concentration: 75 mM) for activating T-type calcium channel, respectively. Since most of cell-based HTS devices are equipped with a liquid application system for injection of drug, but have no liquid sucking system, the inhibiting drug to be tested and KCl were respectively provided at the five-times higher concentration in 10 mM CaCl2 HEPES buffer solution at the amount of 27 μl, diluted five-times at the final cell plate volume of 135 μl, and then used in this test. The concrete method of measurement using FDSS6000 was as follows: After recording the reference value of 20 seconds, the change of intracellular Ca^2+ concentration which induced by treatment of the inhibiting drug to be tested for 75 seconds followed by administration of KCl was measured, wherein the percentage (%) inhibition effect of the test drug, through estimating the area of ratio value of 340/380 in the control without treatment of the test drug as 100%. As a reference drug, mibefradil was used.
For accurate calcium-imagination, the light source of 4 xenon lamps in FDSS6000 were radiated to make the cells exposed selectively to the excitation wavelength (340 nm and 380 nm) by computer-controlled filter wheel. Data was obtained at interval of each 1.23 second. The emitter fluorescence light inflowed through long-pass filter was obtained as an average 340/380 ratio value for each well in the 96-wells by using CCD camera and digital fluorescence analyzer in FDSS6000. All image data and analyses were obtained by using FDSS6000-exclusive program provide from Hamamatsu Photonics.

T1 sequence (O43497 whole entry): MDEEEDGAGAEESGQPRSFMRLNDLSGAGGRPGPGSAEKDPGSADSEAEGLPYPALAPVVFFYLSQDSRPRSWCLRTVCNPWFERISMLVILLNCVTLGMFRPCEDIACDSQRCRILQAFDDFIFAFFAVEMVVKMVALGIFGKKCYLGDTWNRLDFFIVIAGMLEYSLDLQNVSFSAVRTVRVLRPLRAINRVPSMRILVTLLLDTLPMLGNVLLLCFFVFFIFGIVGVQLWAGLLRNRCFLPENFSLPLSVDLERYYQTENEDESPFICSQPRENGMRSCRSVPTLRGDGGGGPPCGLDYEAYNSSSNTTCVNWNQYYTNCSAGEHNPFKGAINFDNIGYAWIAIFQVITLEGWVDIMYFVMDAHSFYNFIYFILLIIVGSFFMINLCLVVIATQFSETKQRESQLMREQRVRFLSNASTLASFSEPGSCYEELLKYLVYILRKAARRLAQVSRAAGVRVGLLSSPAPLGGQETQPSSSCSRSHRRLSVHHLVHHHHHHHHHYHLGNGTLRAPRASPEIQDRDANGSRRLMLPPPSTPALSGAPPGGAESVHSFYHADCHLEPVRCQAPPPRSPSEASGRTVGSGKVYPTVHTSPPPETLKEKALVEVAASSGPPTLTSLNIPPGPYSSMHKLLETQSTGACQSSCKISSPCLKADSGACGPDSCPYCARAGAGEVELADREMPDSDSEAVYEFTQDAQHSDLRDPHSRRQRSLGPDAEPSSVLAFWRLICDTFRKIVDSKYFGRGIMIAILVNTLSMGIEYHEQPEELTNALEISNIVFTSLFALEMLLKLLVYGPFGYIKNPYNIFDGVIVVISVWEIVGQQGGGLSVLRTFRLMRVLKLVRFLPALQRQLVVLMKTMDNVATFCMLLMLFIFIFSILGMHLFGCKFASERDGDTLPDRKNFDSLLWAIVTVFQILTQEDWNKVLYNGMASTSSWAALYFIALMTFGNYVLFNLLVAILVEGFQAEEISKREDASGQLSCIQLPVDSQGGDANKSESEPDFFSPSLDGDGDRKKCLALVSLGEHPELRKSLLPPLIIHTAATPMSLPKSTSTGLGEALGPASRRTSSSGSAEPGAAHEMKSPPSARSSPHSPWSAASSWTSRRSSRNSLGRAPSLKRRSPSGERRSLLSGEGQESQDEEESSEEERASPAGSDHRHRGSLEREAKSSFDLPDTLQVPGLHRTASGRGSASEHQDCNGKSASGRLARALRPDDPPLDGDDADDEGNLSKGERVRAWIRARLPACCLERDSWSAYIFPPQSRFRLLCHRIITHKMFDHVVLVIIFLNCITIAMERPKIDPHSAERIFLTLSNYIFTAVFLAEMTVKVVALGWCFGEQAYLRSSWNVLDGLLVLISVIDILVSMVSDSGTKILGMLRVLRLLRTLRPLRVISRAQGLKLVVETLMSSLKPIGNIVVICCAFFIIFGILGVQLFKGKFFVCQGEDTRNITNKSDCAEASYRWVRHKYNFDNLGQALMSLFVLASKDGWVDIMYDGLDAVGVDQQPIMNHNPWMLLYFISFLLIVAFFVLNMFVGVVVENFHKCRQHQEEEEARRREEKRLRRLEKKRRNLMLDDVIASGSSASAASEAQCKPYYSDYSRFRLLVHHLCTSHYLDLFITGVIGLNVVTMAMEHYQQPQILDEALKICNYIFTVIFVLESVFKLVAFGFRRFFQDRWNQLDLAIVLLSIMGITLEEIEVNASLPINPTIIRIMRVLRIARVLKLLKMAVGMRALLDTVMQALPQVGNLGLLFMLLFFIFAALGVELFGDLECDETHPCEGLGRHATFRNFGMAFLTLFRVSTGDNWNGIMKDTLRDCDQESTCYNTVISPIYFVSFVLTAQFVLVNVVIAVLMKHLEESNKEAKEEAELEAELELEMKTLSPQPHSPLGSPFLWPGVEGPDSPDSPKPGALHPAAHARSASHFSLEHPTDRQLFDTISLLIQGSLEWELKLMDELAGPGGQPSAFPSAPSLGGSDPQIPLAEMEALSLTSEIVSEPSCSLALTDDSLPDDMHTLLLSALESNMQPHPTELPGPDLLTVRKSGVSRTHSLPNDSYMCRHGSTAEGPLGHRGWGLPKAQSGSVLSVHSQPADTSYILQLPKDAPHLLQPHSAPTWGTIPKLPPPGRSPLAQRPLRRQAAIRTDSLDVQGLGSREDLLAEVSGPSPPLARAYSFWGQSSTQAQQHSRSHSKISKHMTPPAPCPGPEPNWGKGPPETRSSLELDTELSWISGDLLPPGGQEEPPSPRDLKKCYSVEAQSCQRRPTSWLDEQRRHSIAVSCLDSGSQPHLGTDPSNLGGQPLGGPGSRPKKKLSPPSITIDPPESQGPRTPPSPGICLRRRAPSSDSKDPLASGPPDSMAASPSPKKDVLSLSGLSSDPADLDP

SMILES	IC50 [1] [nM]	melting point [°C]	inhibition at 10 µM [2] [%]
NC(N)=Nc1nc(CC(=O)Nc2cc(Cl)cc(Cl)c2)cs1	310 ± 220		
Br.NC(N)=Nc1nc(-c2cccc(Br)c2)cs1 [KHG24386, 2-(4-(3-bromophenyl)thiazole-2-yl)guanidine hydrobromide]		179.8	10.9
Br.CCc1ccc(-c2csc(N=C(N)N)n2)cc1 [KHG24387, 2-(4-(4-ethylphenyl)thiazole-2-yl)guanidine hydrobromide]		234.8	17.1
Br.NC(N)=Nc1nc(-c2cccc(Cl)c2)cs1 [KHG24388, 2-(4-(3-chlorophenyl)thiazole-2-yl)guanidine hydrobromide]		210.4	10.8
Br.NC(N)=Nc1nc(-c2ccc(Cl)c(Cl)c2)cs1 [KHG24390, 2-(4-(3,4-dichlorophenyl)thiazole-2-yl)guanidine hydrobromide]		256.3	7.32
Br.NC(N)=Nc1nc(-c2cc(F)ccc2F)cs1 [KHG24391, 2-(4-(2,5-difluorophenyl)thiazole-2-yl)guanidine hydrobromide]		252.1	20.8
NC(N)=Nc1nc(CC(=O)Nc2cc(C(F)(F)F)cc(C(F)(F)F)c2)cs1 [drawing 11]	780 ± 80		
